# Laboratory results: patent US7297700B2, “Bicycloheteroaryl compounds as P2X7 modulators and uses thereof” (Renovis, Inc., priority 2005, dated 2007)
# Tested on: IL-1β release from THP-1 cells
# Test: IL-1β Release Assay (Alternate Method), THP-1 cells
# Type: cell-based, human
# Conditions: Homo sapiens; at 0.3 μM; THP-1 cells; read-out: IL-1β % inhibition
# Method in brief: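 THP-1 cells differentiated 16 h with 100 ng/mL LPS plus 100 ng/mL IFN-γ, reprimed 2 h with 100 ng/mL LPS, pretreated 30 min with compound, then challenged 45 min with 250 uM BzATP (final). Supernatant IL-1β quantified by ELISA; percent inhibition from background-adjusted levels versus untreated cells.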
row,SMILES,inhibition at 0.3 µM
1,O=C(NCC12CC3CC(CC(C3)C1)C2)c1ncnc2c1CCN(Cc1ccc(F)cc1F)C2 [Compound 137],50 to 75%

# Same assay, conditions: at 0.3 μM; THP-1 cells
row,SMILES,IL-1β % inhibition
1,O=C(CC12CC3CC(CC(C3)C1)C2)Nc1ncnc2c1CCN(S(=O)(=O)c1ccccc1Cl)C2 [Compound 192],+++ (compound exhibited 50-75% inhibition at 0.3 μM)
2,O=C(CC12CC3CC(CC(C3)C1)C2)Nc1ncnc2c1CCN(C(=O)c1cc(F)ccc1F)C2 [Compound 279],++++ (compound exhibited 75% or greater inhibition at 0.3 μM)
3,O=C(CC12CC3CC(CC(C3)C1)C2)Nc1ncnc2c1CCN(S(=O)(=O)c1ccc(OC(F)F)cc1)C2 [Compound 190],+++ (compound exhibited 50-75% inhibition at 0.3 μM)
4,CC(c1ccc2c(c1)OCCO2)N1CCc2c(ncnc2NC(=O)CC23CC4CC(CC(C4)C2)C3)C1 (centres unmarked) [Compound 317],+ (compound exhibited 0-25% inhibition at 0.3 μM)
5,O=C(CC1CCCCCC1)Nc1ncnc2c1CCNC2 [Compound 12],+ (compound exhibited 0-25% inhibition at 0.3 μM)
6,CC(C)(C)CC(=O)N1CCc2c(ncnc2NC(=O)C(C)(C)C23CC4CC(CC(C4)C2)C3)C1 [Compound 367],+ (compound exhibited 0-25% inhibition at 0.3 μM)
7,O=C(CC12CC3CC(CC(C3)C1)C2)Nc1ncnc2c1CCN(C(=O)c1ccccc1F)C2 [Compound 280],+++ (compound exhibited 50-75% inhibition at 0.3 μM)
8,COc1ccc(C)cc1S(=O)(=O)N1CCc2c(ncnc2NC(=O)CC23CC4CC(CC(C4)C2)C3)C1 [Compound 214],+ (compound exhibited 0-25% inhibition at 0.3 μM)
9,COCC(=O)N1CCc2c(ncnc2NC(=O)CC23CC4CC(CC(C4)C2)C3)C1 [Compound 240],+ (compound exhibited 0-25% inhibition at 0.3 μM)
10,CC(C)(C(=O)Nc1ncnc2c1CCN(Cc1ccc(F)cc1F)C2)C12CC3CC(CC(C3)C1)C2 [Compound 347],+ (compound exhibited 0-25% inhibition at 0.3 μM)
11,Cc1nc[nH]c1CN1CCc2c(ncnc2NC(=O)CC23CC4CC(CC(C4)C2)C3)C1 [Compound 81],+++ (compound exhibited 50-75% inhibition at 0.3 μM)
12,CC(C)(C(=O)Nc1ncnc2c1CCN(C(=O)c1cc(F)ccc1F)C2)C12CC3CC(CC(C3)C1)C2 [Compound 363],+ (compound exhibited 0-25% inhibition at 0.3 μM)
13,COc1ccc(CN2CCc3c(ncnc3NC(=O)CC34CC5CC(CC(C5)C3)C4)C2)c(F)c1 [Compound 95],++++ (compound exhibited 75% or greater inhibition at 0.3 μM)
14,O=C(CC12CC3CC(CC(C3)C1)C2)Nc1ncnc2c1CCN(S(=O)(=O)Cc1ccc(F)cc1)C2 [Compound 184],++++ (compound exhibited 75% or greater inhibition at 0.3 μM)
15,O=C(CC12CC3CC(CC(C3)C1)C2)Nc1ncnc2c1CCN(S(=O)(=O)c1ccccc1C(F)(F)F)C2 [Compound 195],+ (compound exhibited 0-25% inhibition at 0.3 μM)
16,O=C(CC12CC3CC(CC(C3)C1)C2)Nc1ncnc2c1CCN(Cc1ccc3cc[nH]c3c1)C2 [Compound 332],+++ (compound exhibited 50-75% inhibition at 0.3 μM)
17,O=C(CC12CC3CC(CC(C3)C1)C2)Nc1ncnc2c1CCN(Cc1cc(C(F)(F)F)ccc1F)C2 [Compound 109],++ (compound exhibited 25-50% inhibition at 0.3 μM)
18,O=C(CC12CC3CC(CC(C3)C1)C2)Nc1ncnc2c1CCN(Cc1ccc(Oc3ccccc3)cc1)C2 [Compound 75],+ (compound exhibited 0-25% inhibition at 0.3 μM)

row,SMILES,IL-1β % inhibition
1,O=C(CC12CC3CC(CC(C3)C1)C2)Nc1ncnc2c1CCN(Cc1ccc(F)c(Cl)c1)C2 [Compound 323],+ (compound exhibited 0-25% inhibition at 0.3 μM)
2,COc1ccc(CN2CCc3c(ncnc3NC(=O)CC34CC5CC(CC(C5)C3)C4)C2)cc1Cl [Compound 324],+ (compound exhibited 0-25% inhibition at 0.3 μM)
3,O=C(CC12CC3CC(CC(C3)C1)C2)Nc1ncnc2c1CCN(C(=O)COc1ccccc1)C2 [Compound 249],+ (compound exhibited 0-25% inhibition at 0.3 μM)
4,CC12CC3CC(C)(C1)CC(CC(=O)Nc1ncnc4c1CCN(Cc1ccc(F)cc1)C4)(C3)C2 [Compound 376],++ (compound exhibited 25-50% inhibition at 0.3 μM)
5,O=C(CC12CC3CC(CC(C3)C1)C2)Nc1ncnc2c1CCN(C(=O)c1ccccc1C(F)(F)F)C2 [Compound 270],+ (compound exhibited 0-25% inhibition at 0.3 μM)
6,O=C(CC12CC3CC(CC(C3)C1)C2)Nc1ncnc2c1CCN(C(=O)c1ccc(OC(F)(F)F)cc1)C2 [Compound 228],+ (compound exhibited 0-25% inhibition at 0.3 μM)
7,O=C(CC12CC3CC(CC(C3)C1)C2)Nc1ncnc2c1CCN(Cc1ccccc1OCCO)C2 [Compound 100],++ (compound exhibited 25-50% inhibition at 0.3 μM)
8,O=C(CC12CC3CC(CC(C3)C1)C2)Nc1ncnc2c1CCN(C(=O)c1cccc(C(F)(F)F)c1)C2 [Compound 233],++++ (compound exhibited 75% or greater inhibition at 0.3 μM)
9,Cc1cc(CN2CCc3c(ncnc3NC(=O)CC34CC5CC(CC(C5)C3)C4)C2)ccc1F [Compound 86],++ (compound exhibited 25-50% inhibition at 0.3 μM)
10,O=C(NCC12CC3CC(CC(C3)C1)C2)c1ncnc2c1CCN(Cc1cccc(F)c1)C2 [Compound 316],+ (compound exhibited 0-25% inhibition at 0.3 μM)
11,CCc1ccc(CN2CCc3c(ncnc3NC(=O)CC34CC5CC(CC(C5)C3)C4)C2)cc1 [Compound 45],+ (compound exhibited 0-25% inhibition at 0.3 μM)
12,O=C(CC12CC3CC(CC(C3)C1)C2)Nc1ncnc2c1CCN(C(=O)c1cnn(-c3ccccc3)c1C(F)(F)F)C2 [Compound 286],+++ (compound exhibited 50-75% inhibition at 0.3 μM)
13,O=C(CC12CC3CC(CC(C3)C1)C2)Nc1ncnc2c1CCN(C(=O)C1CCCC1)C2 [Compound 238],++++ (compound exhibited 75% or greater inhibition at 0.3 μM)
14,COCCC(=O)N1CCc2c(ncnc2NC(=O)CC23CC4CC(CC(C4)C2)C3)C1 [Compound 307],++ (compound exhibited 25-50% inhibition at 0.3 μM)
15,COc1ccc(CC(=O)N2CCc3c(ncnc3NC(=O)CC34CC5CC(CC(C5)C3)C4)C2)cc1 [Compound 224],+ (compound exhibited 0-25% inhibition at 0.3 μM)
16,O=C(CC12CC3CC(CC(C3)C1)C2)Nc1ncnc2c1CCN(C(=O)c1ccnc(Cl)c1)C2 [Compound 298],++++ (compound exhibited 75% or greater inhibition at 0.3 μM)
17,COc1cc(CN2CCc3c(ncnc3NC(=O)CC34CC5CC(CC(C5)C3)C4)C2)ccc1O [Compound 117],+ (compound exhibited 0-25% inhibition at 0.3 μM)

# Same assay, conditions: at 0.3 μM; THP-1 cells, BzATP-stimulated
row,SMILES,IL-1β % inhibition
1,O=C(Nc1ncnc2c1CCN(Cc1ccc3c(c1)OC(F)(F)O3)C2)C12CC3CC(CC(C3)C1)C2 [Compound 627],++++ (compound exhibited 75% or greater inhibition at 0.3 μM)
2,Cc1nn(C)c(Cl)c1S(=O)(=O)N1CCc2c(ncnc2NC(=O)C23CC4CC(CC(C4)C2)C3)C1 [Compound 495],++ (compound exhibited 25-50% inhibition at 0.3 μM)
3,O=C(Nc1ncnc2c1CCN(S(=O)(=O)c1cc(Cl)ccc1F)C2)C12CC3CC(CC(C3)C1)C2 [Compound 539],++ (compound exhibited 25-50% inhibition at 0.3 μM)
4,COc1ccc(CN2CCc3c(ncnc3NC(=O)C34CC5CC(CC(C5)C3)C4)C2)cc1O [Compound 593],+ (compound exhibited 0-25% inhibition at 0.3 μM)
5,N#Cc1cccc(CN2CCc3c(ncnc3NC(=O)C34CC5CC(CC(C5)C3)C4)C2)c1 [Compound 571],++++ (compound exhibited 75% or greater inhibition at 0.3 μM)
6,O=C(Nc1ncnc2c1CCN(Cc1ccc3c(c1)OCCO3)C2)C12CC3CC(CC(C3)C1)C2 [Compound 589],+++ (compound exhibited 50-75% inhibition at 0.3 μM)
7,Cc1ccc(CN2CCc3c(ncnc3NC(=O)C34CC5CC(CC(C5)C3)C4)C2)cc1C [Compound 585],++ (compound exhibited 25-50% inhibition at 0.3 μM)
8,COc1ccc(C)cc1S(=O)(=O)N1CCc2c(ncnc2NC(=O)C23CC4CC(CC(C4)C2)C3)C1 [Compound 548],+ (compound exhibited 0-25% inhibition at 0.3 μM)
9,Cc1ccc(CN2CCc3c(ncnc3NC(=O)C34CC5CC(CC(C5)C3)C4)C2)cc1 [Compound 602],++ (compound exhibited 25-50% inhibition at 0.3 μM)
10,O=C(Nc1ncnc2c1CCN(S(=O)(=O)c1ccc(Oc3ccccc3)cc1)C2)C12CC3CC(CC(C3)C1)C2 [Compound 524],++++ (compound exhibited 75% or greater inhibition at 0.3 μM)
11,O=C(C1COc2ccccc2C1)N1CCc2c(ncnc2NC(=O)C23CC4CC(CC(C4)C2)C3)C1 (racemic) [Compound 477],++ (compound exhibited 25-50% inhibition at 0.3 μM)
12,O=C(c1ccno1)N1CCc2c(ncnc2NC(=O)C23CC4CC(CC(C4)C2)C3)C1 [Compound 466],+ (compound exhibited 0-25% inhibition at 0.3 μM)
13,O=C(c1ccc2ccccc2c1)N1CCc2c(ncnc2NC(=O)C23CC4CC(CC(C4)C2)C3)C1 [Compound 460],+ (compound exhibited 0-25% inhibition at 0.3 μM)
14,COc1cc(CN2CCc3c(ncnc3NC(=O)C34CC5CC(CC(C5)C3)C4)C2)cc(Br)c1OC [Compound 594],+ (compound exhibited 0-25% inhibition at 0.3 μM)
15,O=C(Nc1ncnc2c1CCN(S(=O)(=O)Cc1ccc(F)cc1)C2)C12CC3CC(CC(C3)C1)C2 [Compound 517],++ (compound exhibited 25-50% inhibition at 0.3 μM)
16,O=C(Nc1ncnc2c1CCN(S(=O)(=O)c1ccccc1F)C2)C12CC3CC(CC(C3)C1)C2 [Compound 501],++ (compound exhibited 25-50% inhibition at 0.3 μM)
17,O=C(Nc1ncnc2c1CCN(S(=O)(=O)c1ccc(Oc3ccccn3)cc1)C2)C12CC3CC(CC(C3)C1)C2 [Compound 506],++++ (compound exhibited 75% or greater inhibition at 0.3 μM)
